Measurements from patent US20250122173A1, “MODULATORS OF RHO-ASSOCIATED PROTEIN KINASE” (Redx Pharma Limited, priority 2022, published 2025).

How the values were obtained:
[1] = biological target: T1, ROCK2 (Homo sapiens, UniProt O75116); experiment: ROCK2 inhibition assay (ADP-Glo kinase assay, called ROCK2 binding activity); format: biochemical; conditions: 20 μM ATP, 1 hour pre-incubation, read-out: ROCK 2 (IC50 category)
T1 construct: N-terminal 6His-tagged ROCK2 catalytic domain 11-552; 6His (N); purchased Dundee University, UK; host or cells: baculovirus expression system
Outline: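 N-terminal 6His ROCK2 catalytic domain (11-552, baculovirus-expressed; 1.25 nM) was pre-incubated with compound for 1 h (1% DMSO, HEPES pH 7.5). Reaction then ran 1 h with 100 μM long S6 peptide and 20 μM ATP. ADP was quantified by ADP-Glo luminescence, and IC50 was derived from a four-parameter logistic fit and reported in potency bins.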

[2] = biological target: ROCK1 (Homo sapiens, UniProt Q13464); experiment: ROCK1 inhibition assay (ROCK1 binding activity, as determined by the assay described for ROCK2); format: biochemical; conditions: read-out: ROCK 1 (IC50 category)
Outline: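 Run under the conditions used for ROCK2: 1 h compound–kinase preincubation, then 1 h reaction with 100 μM long S6 peptide and 20 μM ATP in 50 mM HEPES pH 7.5, 1% DMSO. ADP quantified by ADP-Glo luminescence; IC50 from four-parameter logistic fit, reported in potency categories.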

T1 sequence (O75116 11-552): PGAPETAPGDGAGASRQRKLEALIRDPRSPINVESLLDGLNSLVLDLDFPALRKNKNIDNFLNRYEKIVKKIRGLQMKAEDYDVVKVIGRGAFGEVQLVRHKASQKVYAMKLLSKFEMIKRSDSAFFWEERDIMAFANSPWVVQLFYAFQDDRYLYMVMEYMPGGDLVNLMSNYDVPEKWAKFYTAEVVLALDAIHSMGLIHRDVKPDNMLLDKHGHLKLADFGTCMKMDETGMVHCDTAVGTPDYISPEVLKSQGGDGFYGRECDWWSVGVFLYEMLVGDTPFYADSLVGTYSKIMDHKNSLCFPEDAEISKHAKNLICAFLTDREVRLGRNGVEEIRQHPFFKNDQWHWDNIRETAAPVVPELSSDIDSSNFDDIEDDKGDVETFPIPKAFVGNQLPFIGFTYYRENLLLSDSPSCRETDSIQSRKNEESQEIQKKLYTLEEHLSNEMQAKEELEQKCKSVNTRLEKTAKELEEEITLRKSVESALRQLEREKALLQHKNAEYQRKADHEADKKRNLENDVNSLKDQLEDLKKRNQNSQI
Sequence of ROCK1 (Q13464 whole entry): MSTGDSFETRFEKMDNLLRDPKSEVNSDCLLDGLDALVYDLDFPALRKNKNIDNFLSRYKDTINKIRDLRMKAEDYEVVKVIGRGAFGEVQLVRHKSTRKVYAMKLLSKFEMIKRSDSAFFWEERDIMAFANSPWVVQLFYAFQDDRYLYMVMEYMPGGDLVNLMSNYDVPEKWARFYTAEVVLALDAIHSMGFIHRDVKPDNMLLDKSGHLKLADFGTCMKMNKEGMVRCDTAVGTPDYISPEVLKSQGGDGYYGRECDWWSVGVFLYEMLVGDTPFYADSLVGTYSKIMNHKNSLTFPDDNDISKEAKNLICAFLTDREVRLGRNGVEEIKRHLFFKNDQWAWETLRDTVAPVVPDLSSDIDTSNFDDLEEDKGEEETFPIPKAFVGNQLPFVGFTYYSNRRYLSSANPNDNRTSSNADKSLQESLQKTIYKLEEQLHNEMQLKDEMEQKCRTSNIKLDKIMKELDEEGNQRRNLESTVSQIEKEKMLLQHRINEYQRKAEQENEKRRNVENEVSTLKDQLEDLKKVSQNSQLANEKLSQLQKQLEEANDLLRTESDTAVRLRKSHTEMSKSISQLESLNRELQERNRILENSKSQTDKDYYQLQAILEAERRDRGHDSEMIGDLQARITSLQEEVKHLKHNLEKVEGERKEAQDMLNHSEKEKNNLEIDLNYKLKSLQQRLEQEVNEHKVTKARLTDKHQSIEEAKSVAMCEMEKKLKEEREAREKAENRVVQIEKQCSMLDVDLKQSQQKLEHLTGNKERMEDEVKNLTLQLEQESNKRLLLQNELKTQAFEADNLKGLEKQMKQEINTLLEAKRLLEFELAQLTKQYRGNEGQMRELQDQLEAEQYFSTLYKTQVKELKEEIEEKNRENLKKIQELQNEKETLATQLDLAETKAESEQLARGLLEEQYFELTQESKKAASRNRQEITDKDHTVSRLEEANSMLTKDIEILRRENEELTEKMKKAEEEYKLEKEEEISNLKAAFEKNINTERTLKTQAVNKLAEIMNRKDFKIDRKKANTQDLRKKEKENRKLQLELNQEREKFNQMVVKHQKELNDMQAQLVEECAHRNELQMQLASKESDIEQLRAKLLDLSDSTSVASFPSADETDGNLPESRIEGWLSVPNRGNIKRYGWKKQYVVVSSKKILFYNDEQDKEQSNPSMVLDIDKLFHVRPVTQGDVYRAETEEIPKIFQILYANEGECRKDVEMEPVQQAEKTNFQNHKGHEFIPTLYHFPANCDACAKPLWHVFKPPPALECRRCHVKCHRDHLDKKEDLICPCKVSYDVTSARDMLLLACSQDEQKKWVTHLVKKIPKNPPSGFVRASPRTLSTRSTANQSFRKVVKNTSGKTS

Row | SMILES | IC50 [1] [µM] | IC50 [2] [µM]
1 | CCn1nc(-c2ccc(C3CCN(CC(F)(F)F)CC3)cc2)nc1Nc1cc2c(cc1F)C(=O)NC2C (stereo not drawn) [Example 146] | 0.3 to 3 | > 10
2 | CCn1nc(-c2ccc(C3CCCN(CC(F)(F)F)C3)c(C)c2)nc1Nc1cc2c(cc1C)C(=O)NC2C (stereo not drawn) [Example 147] | 0.3 to 3 | > 10
3 | CCn1nc(-c2ccc(C3CCC(C)NC3)cc2)nc1Nc1cc2c(cc1C)C(=O)NC2C (stereo not drawn) [Example 148] | > 10 | > 10
4 | CCn1nc(-c2ccc(-c3ccc(C)nc3)cc2C)nc1Nc1cc2c(cc1F)C(=O)NC2C (stereo not drawn) [Example 149] | < 0.3 | > 10
5 | CCn1nc(-c2ccc(-c3ccc(C)nc3)cc2C)nc1Nc1cc2c(cc1C)C(=O)NC2C (stereo not drawn) [Example 150] | < 0.3 | 3 to 10
6 | CCn1nc(-c2ccc(C3CCCN(C)C3)cc2)nc1Nc1cc2c(cc1C)C(=O)NC2C (stereo not drawn) [Example 151] | > 10 | > 10
7 | CCn1nc(-c2ccc(-c3cnn(CC(F)(F)F)c3)cc2)nc1Nc1cc2c(cc1C)C(=O)NC2C (stereo not drawn) [Example 152] | < 0.3 | 3 to 10
8 | CCn1nc(-c2ccc(-c3cnn(CC(F)(F)F)c3)cc2C)nc1Nc1cc2c(cc1C)C(=O)NC2C (stereo not drawn) [Example 153] | < 0.3 | 0.3 to 3
9 | CCn1nc(-c2ccc(-c3ccc(C(C)(C)O)nc3)c(C)c2)nc1Nc1cc2c(cc1C)C(=O)NC2C (stereo not drawn) [Example 154] | < 0.3 | 0.3 to 3
10 | CCn1nc(-c2ccc(C3CCC(C)NC3)cc2C)nc1Nc1cc2c(cc1C)C(=O)NC2C (stereo not drawn) [Example 155] | 3 to 10 | > 10
11 | CCn1nc(-c2ccc(-c3ccc(C4CC4)nc3)c(C)c2)nc1Nc1cc2c(cc1C)C(=O)NC2C (stereo not drawn) [Example 156] | 0.3 to 3 | > 10
12 | CCn1nc(-c2ccc(-c3ccc(C(C)(C)O)nc3)cc2)nc1Nc1cc2c(cc1C)C(=O)NC2C (stereo not drawn) [Example 157] | < 0.3 | 0.3 to 3
13 | CCn1nc(-c2ccc(-n3cnc(C4CC4)c3)cc2C)nc1Nc1cc2c(cc1C)C(=O)N[C@@H]2C [Example 158] | < 0.3 | 3 to 10
14 | CCn1nc(-c2ccc(-n3cnc(C4CC4)c3)cc2C)nc1Nc1cc2c(cc1C)C(=O)N[C@H]2C [Example 159] | < 0.3 | 0.3 to 3
15 | CCn1nc(-c2ccc(-c3ccc(C4CC4)nc3)cc2)nc1Nc1cc2c(cc1F)C(=O)N[C@@H]2C [Example 160] | < 0.3 | 3 to 10
16 | CCn1nc(-c2ccc(-c3ccc(C4CC4)nc3)cc2)nc1Nc1cc2c(cc1F)C(=O)N[C@H]2C [Example 161] | < 0.3 | 3 to 10
17 | CCn1nc(-c2ccc(-c3cnn(CC(F)(F)F)c3)cc2)nc1Nc1cc2c(cc1C)C(=O)N[C@H]2C [Example 162] | < 0.3 | 3 to 10
18 | CCn1nc(-c2ccc(-c3cnn(CC(F)(F)F)c3)cc2)nc1Nc1cc2c(cc1C)C(=O)N[C@@H]2C [Example 163] | < 0.3 | 0.3 to 3
